# Test results as given in patent publication US7589080B2, “β-cyclodextrin compositions, and use to prevent transmission of sexually transmitted diseases” (priority 2000, dated 2009).
# Legend:
# [1] = system: CD4+ HIV-susceptible target cells; assay: Cell viability, growth and function after 2-OH-βCD treatment; type: cell-based
# Text: The role of lipid rafts in the HIV-1 fusion process was examined by treating CD4+HIV-susceptible target cells with 2-OH-βCD to deplete membrane cholesterol and disperse lipid rafts.
# Loss of CXCR function in regulating LFA-1 could also explain the lower binding of HIV-1 to βCD-treated cells observed previously (Liao et al., supra, 2000; Orentas and Hildreth, supra, 1993). […] The ability of βCD treatment of cells to affect control of LFA-1 function by CXCR4 also was examined. Jurkat cells were treated with 2-OH-βCD or medium alone, then were added to the wells of culture plates coated with soluble recombinant ICAM-Ig. SDF-1, a CXCR4-specific chemokine that triggers LFA-1 function, was added to trigger binding of LFA-1 to ICAM-1. Control cells responded to SDF-1 and, as expected, bound very well to ICAM-Ig. […] CXCR4-specific gp120 triggers the same responses through CXCR4 as SDF-1 (Iyengar et al., J. Immunol. 162:6263-6267, 1999).
# βCD treatment blocks HIV-1 virus infection. HIV-1 can spread in cell cultures without necessarily exerting cytopathic effects. […] To test the effects of cholesterol depletion on HIV-1 infection of primary T cells by free virus, PHA blasts were treated with 10 mM 2-OH-βCD or medium alone, then were exposed to HIV-1 for 2 hr before washing to remove input virus. Viability and growth of the PHA blasts was not affected by treatment with the βCD under the conditions used. P24 release was measured after an addition 6 days in culture. Two primary strains of HIV-1, 97.099 and 97.534, M-tropic (R5) and dual-tropic (X4R5), respectively, were tested.
# The effects of βCD treatment on HIV infectivity were measured in a sensitive single-cycle infection assay based on a cell line transfected with an LTR-luciferase cassette. […] Quantitative measurements of single round infection are obtained with this assay system (Roos et al., Virology 273:307-315, 2000, which is incorporated herein by reference). Viability of LuSIV cells as determined by trypan blue exclusion and proliferation was not affected by 2-OH-βCD treatment. βCD treatment of LuSIV cells reduced HIV infection by almost 100%, and the effects were readily seen at all viral input levels.
# HIV-1RF = assay: Free virus binding assay (transfer of class II MHC to Jurkat cells); type: cell-based
# Description: Virus binding was measured through host cell antigen transfer as described (Liao et al., supra, 2000). Briefly, Jurkat cells (1×10^6) were washed with serum free RPMI-1640 medium (iRPMI) before incubation in 20 mM 2-OH-βCD in iRPMI or iRPMI alone for 1 hr at 37° C. Cells were then washed twice with iRPMI before adding 100 Tl of clarified HIV-1 supernatant (>10 ng/ml of p24 from PM1 cells) for 1 hr on ice. Excess virus was removed by washing twice with iRPMI. MAbs were then added at 20 ug/ml in 5% NGS/PBS and allowed to incubate for 1 h on ice before washing with iRPMI. FITC-GAM (10 ug/ml) was then added for 45 min on ice before washing with iRPMI. Cells were then fixed with 2% paraformaldehyde followed by analysis on an EPICS Profile II flow cytometer.
# The possibility that βCD treatment affected virus binding or interactions between gp120 and CD4 or CRs was examined. In order to measure virus binding to cells, a flow cytometry assay was used that measures the transfer of host cell class II MHC proteins to class II MHC-negative cells by HIV virions, which incorporate large numbers of these proteins into their lipid envelopes. […] Class II MHC-negative Jurkat cells were used as target cells in the HIV binding assay. As a positive control for flow cytometry analysis, class I MHC molecules were probed on the Jurkat cells, which were stained equally well with MAb against this protein before and after 2-OH-βCD treatment (Table 3). When HIV-1RF from class II MHC-positive PM1 cells was added to untreated Jurkat cells, class II MHC MAb mean channel fluorescence increased from 1.0 to 7.8 relative fluorescence units, while the percentage of positive cells increased from 3.0% to 55.4% (Table 3). 2-OH-βCD treatment of the cells reduced virus binding by 70%, as determined by mean channel fluorescence of the anti-class II MHC mAb.
# HIV binding to Jurkat cells (control and 2-OH-βCD-treated) was measured by transfer of class II MHC molecules. MAbs used were MHM.5 (anti-class I MHC), positive control; MHM.33 (anti-class II MHC). “MCF” indicates mean channel fluorescence. “% Pos” indicates percent positive cells. “ND” indicates not determined.
# HSV-2 strain G = assay: HSV mouse vaginal challenge model; type: in vivo, CD-1 mice; settings: HSV-2 preincubated with 3%, intravaginal 1×10^4 TCID50; p=0.022
# Description: The ability of 2-OH-βCD to reduce the infectiousness of HIV-1 (Examples 2 and 3) led to an investigation as to the general applicability of βCDs to prevent the transmission of other sexually transmitted enveloped viruses. A well characterized HSV mouse vaginal challenge model was used to examine the effect of 2-OH-βCD on HSV-2 infection (Sherwood et al., supra, 1996). Adult female CD-1 mice (Charles River Breeding Laboratories; Wilmington Mass.) were injected subcutaneously with Depo-Provera® progestin (2 mg) to increase their sensitivity, then one week later the mice were inoculated intravaginally with 1×10^4 TCID50 of cell-free HSV-2 strain G (10 ID50) using a WIRETROL capillary micropipette (Drummond Scientific; Broomall Pa.). Infection was confirmed by lavage culture on newborn foreskin fibroblast cells (Biowhitaker). Prior to inoculation, HSV-2 was preincubated either with 3% 2-OH-βCD or with buffer.
substance,measurement,setting,value
2-hydroxypropyl-β-cyclodextrin [2-OH-βCD],Viability and growth of the PHA blasts,[1]; 10 mM,not affected
same,Cell viability by Trypan Blue exclusion,[1]; 10 to 20 mM for 1 hr at 37° C,without any loss in cell viability
same,Cell viability,"[1]; Jurkat cells, adhesion assay",no effect on cell viability
same,Viability of LuSIV cells by trypan blue exclusion and proliferation,[1]; LuSIV cells,not affected
same,Cell growth after treatment,[1]; placed back into culture in cholesterol-containing medium,continued to grow normally
same,Ca2+ flux responses to anti-CD3 MAb,[1]; treated Jurkat cells,still showed Ca^2+ flux responses
same,"Reduction of virus binding, by mean channel fluorescence of the anti-class II MHC mAb",HIV-1RF; Jurkat cells treated with 20 mM,70%
same,MHM5 (anti-class I MHC) % Pos,"HIV-1RF; treated Jurkat cells, HIVRF",100%
same,MHM5 (anti-class I MHC) MCF,"HIV-1RF; treated Jurkat cells, HIVRF",167.8 MCF
same,MHM33 (anti-class II MHC) % Pos,"HIV-1RF; treated Jurkat cells, HIVRF",26.0%
same,MHM33 (anti-class II MHC) MCF,"HIV-1RF; treated Jurkat cells, HIVRF",2.4 MCF
same,IgG1 % Pos,"HIV-1RF; treated Jurkat cells, no virus",3.4%
same,IgG1 MCF,"HIV-1RF; treated Jurkat cells, no virus",0.7 MCF
same,MHM5 (anti-class I MHC) % Pos,"HIV-1RF; treated Jurkat cells, no virus",100%
same,MHM5 (anti-class I MHC) MCF,"HIV-1RF; treated Jurkat cells, no virus",165 MCF
same,MHM33 (anti-class II MHC) % Pos,"HIV-1RF; treated Jurkat cells, no virus",3.3%
same,MHM33 (anti-class II MHC) MCF,"HIV-1RF; treated Jurkat cells, no virus",0.7 MCF
same,Mice that became infected,HSV-2 strain G,5 of 10
